Measured values taken from patent US7316814B2, “Cosmetic composition comprising a silicone-containing compound and a fatty acid ester” (L'Oreal, priority 1995, dated 2008).

test: Maximum mass content of ester added to a gum-in-silicone-oil solution without precipitation of the gum; type: physicochemical; conditions: 25° C.; 13% gum solution in polydimethylsiloxane (Q2-1403)
Procedure: The maximum mass content of ester which may be added, at 25° C., to a solution of gum in a silicone oil without observing precipitation of the gum was measured.

In order of rising “Maximum mass content of ester which may be added without observing precipitation of the gum” value:
1. CC(C)CCCCCCCCCCCCCCCOC(=O)CCCCCC(C)C [Isostearyl isononanoate]  60%
2. CC(C)CCCCCCCCCCCCCCCOC(=O)C(C)(C)C [Isostearyl neopentanoate]  68%
3. CCCCCCCCC(CCCCCC)COC(=O)CCCCCC(C)C (stereo not shown) [2-hexyldecyl isononanoate]  72%

For Octyldodecyl neopentanoate, the “Maximum mass content of ester which may be added without observing precipitation of the gum” value was “to at least 1000%”.
